The subject of experiment [1] is Enterococcus faecalis. The experiment can be described thus: Compound was evaluated for bactericidal activity against Enterococcus faecalis. In kind it is functional. Further details: concentration or dose not given beside the values; call rule not given here.
Experiment [2] concerns Escherichia coli. The experiment can be described thus: Compound was evaluated for its antibacterial activity against Escherichia coli BAS849. In kind it is functional.
In experiment [3] the test system is Escherichia coli. The experiment can be described thus: Compound was evaluated for inhibition of peptidoglycan synthesis in Escherichia coli using UDP-[14C]-GlcNAc radioligand. In kind it is functional, organism-based.
In experiment [4] the test system is Escherichia coli. The experiment can be described thus: Compound was evaluated for inhibition of peptidoglycan synthesis in Escherichia coli using [14C]-lipid II radioligand. In kind it is functional, organism-based.
Experiment [5] deals with Enterococcus faecium. The experiment can be described thus: Compound was evaluated for its antibacterial activity against Enterococcus faecium CL4931 (Van A). In kind it is functional.
Experiment [6] relates to Enterococcus faecium. The experiment can be described thus: Compound was evaluated for its antibacterial activity against Enterococcus faecium RLA1 strain resistant to ampicillin. In kind it is functional.
The test system of experiment [7] is Enterococcus faecium. The experiment can be described thus: Compound was evaluated for its antibacterial activity against Enterococcus faecium ATCC 49624. In kind it is functional.
The test system of experiment [8] is Enterococcus faecalis. The experiment can be described thus: Compound was evaluated for inhibition of peptidoglycan synthesis in Enterococcus faecalis using [14C]lysine radioligand. In kind it is functional, organism-based.
Experiment [9] has as its system Enterococcus faecalis. The experiment can be described thus: Compound was evaluated for its antibacterial activity against Enterococcus faecalis ATCC 29212. In kind it is functional.
For experiment [10], the system named is Enterococcus faecalis. The experiment can be described thus: Compound was evaluated for its antibacterial activity against Enterococcus faecalis CL4877 (Van B). In kind it is functional.
The test system of experiment [11] is Enterococcus faecalis. The experiment can be described thus: Compound was evaluated for its antibacterial activity against Enterococcus faecalis CL5244 (Van B). In kind it is functional.
For experiment [12], the system named is Staphylococcus epidermidis. The experiment can be described thus: Compound was evaluated for bactericidal activity against Staphylococcus epidermidis. In kind it is functional.
Experiment [13] deals with Staphylococcus aureus. The experiment can be described thus: Compound was evaluated for bactericidal activity against Staphylococcus aureus. In kind it is functional.
Experiment [14] concerns Staphylococcus aureus. The experiment can be described thus: Compound was evaluated for its antibacterial activity against Staphylococcus aureus ATCC 29213. In kind it is functional.
The subject of experiment [15] is Staphylococcus epidermidis. The experiment can be described thus: Compound was evaluated for its antibacterial activity against Staphylococcus epidermidis ATCC 12228. In kind it is functional.
For experiment [16], the system named is Staphylococcus epidermidis. The experiment can be described thus: Compound was evaluated for its antibacterial activity against […] ATCC 12228. In kind it is functional.
For experiment [17], the system named is Staphylococcus epidermidis. The experiment can be described thus: Compound was evaluated for bactericidal activity against […]. In kind it is functional.
Experiment [18] concerns Enterococcus faecalis. The experiment can be described thus: Compound was evaluated for inhibition of peptidoglycan synthesis in Enterococcus faecalis using [14C]lysine radioligand; not applicable. In kind it is functional, organism-based.

≈ marks a conversion by molar mass, not a printed value. Where only a bound is given, the exact number is not on record here.

One may read the MIC as the least concentration at which growth counts as inhibited. A word on the IC50: it is the midpoint of a concentration-inhibition curve. On to `CC(=O)N[C@@H]1[C@H](O[C@H]2[C@@H](O)[C@H](NC(C)=O)[C@H](OC3[C@@H](OP(=O)(O)OC[C@@H](OCCC(C)CCCCC(C)(C)CCC(C)CCC(C)CCCC(C)C)C(=O)O)O[C@@H](C(N)=O)[C@@](C)(O)[C@@H]3OC(N)=O)O[C@H]2CO[C@@H]2O[C@@H](CO)[C@@H](O)[C@H](O)[C@@H]2O)O[C@@H](C)[C@@H](O[C@@H]2O[C@@H](C(=O)NC3=C(O)CCC3=O)[C@H](O)[C@H](O)[C@@H]2O)[C@@H]1O` (stereo partly specified), for which the values for the Survival in experiment [1], in [12] and in [13] were 141%, 0.33% and 62%, respectively. Besides, the MIC was 0.31 µg/mL (≈ 0.195 µM) in [2]; 0.78 µg/mL (≈ 0.49 µM) in [5]; 0.25 µg/mL (≈ 0.157 µM) in experiment [6]; above 25 µg/mL in experiment [7]; 0.08 µg/mL (≈ 0.0502 µM) in [9]; 0.25 µg/mL (≈ 0.157 µM) in experiment [10]. The MIC was found to be 0.25 µg/mL (≈ 0.157 µM) in experiment [11], 0.16 µg/mL (≈ 0.1 µM) in [14] and 0.31 µg/mL (≈ 0.195 µM) in [15]. In addition, the IC50 is 8.1 nM in [3], 98 nM in experiment [4] and above 700000 nM in experiment [8].

`CC(=O)N[C@@H]1[C@H](O[C@H]2[C@@H](O)[C@H](NC(C)=O)[C@H](O[C@@H]3[C@@H](OP(=O)(O)OC[C@@H](OCCC(C)CCCCC(C)(C)CCC(C)CCC(C)CCCC(C)C)C(=O)O)O[C@@H](C(N)=O)[C@@](C)(O)[C@@H]3OC(N)=O)O[C@H]2CO[C@@H]2O[C@@H](CO)[C@@H](O)[C@H](O)[C@@H]2O)O[C@@H](C)[C@@H](O[C@@H]2O[C@@H](C(N)=O)[C@H](O)[C@H](O)[C@@H]2O)[C@@H]1O` (stereo partly specified): the Survival came to 176% in experiment [1], 0.4% in [12] and 61% in experiment [13]. Besides, the MIC in experiment [2] was 0.08 µg/mL (≈ 0.0535 µM); in experiment [5], 0.39 µg/mL (≈ 0.261 µM); in experiment [6], 0.25 µg/mL (≈ 0.167 µM); in experiment [7], above 25 µg/mL; in [9] it was 0.16 µg/mL (≈ 0.107 µM); in experiment [10] it was 0.25 µg/mL (≈ 0.167 µM). Moreover, the MIC in [11] was found to be 0.25 µg/mL (≈ 0.167 µM); in [14] it was 0.08 µg/mL (≈ 0.0535 µM); in [16] it was 0.16 µg/mL (≈ 0.107 µM). In addition, the IC50 is 8.6 nM in experiment [3], 87 nM in experiment [4] and above 700000 nM in experiment [8].

Consider `CCCCCCCCCCCCO[C@H](COP(=O)(O)OC1OC(C(N)=O)C(O)C(NC(=O)Nc2ccc(Cl)c(C(F)(F)F)c2)C1OC1OC(CO)C(O)C(O)C1NC(=O)c1cccc(C(F)(F)F)c1)C(=O)O` (stereo partly specified), for which the Survival in [1] is recorded as 0.00024%; in experiment [17], below 5e-05%; in [13] it was below 5e-05%. The MIC was determined as 12.5 µg/mL (≈ 11.5 µM) in experiment [2]; 6.25 µg/mL (≈ 5.77 µM) in experiment [5]; 6.25 µg/mL (≈ 5.77 µM) in experiment [6]; 6.25 µg/mL (≈ 5.77 µM) in experiment [7]; 6.25 µg/mL (≈ 5.77 µM) in [9]; 3.13 µg/mL (≈ 2.89 µM) in experiment [10]. Further, the MIC in experiment [11] came to 3.13 µg/mL (≈ 2.89 µM); in experiment [14], 6.25 µg/mL (≈ 5.77 µM); in experiment [16], 6.25 µg/mL (≈ 5.77 µM). For the same molecule, the IC50 in experiment [3] amounted to 9800 nM; in experiment [4], 100000 nM; in experiment [8], 2500 nM.

In the case of `CC(=O)NC1C(OC2C(CO)OC(OC3C(OP(=O)(O)OC[C@@H](OCCC(C)CCCCC(C)(C)CCC(C)CCC(C)CCCC(C)C)C(=O)O)OC(C(N)=O)C(C)(O)C3OC(N)=O)C(NC(C)=O)C2O)OC(C)C(O)C1O` (stereo partly specified), the Survival in [1] was 147%; in [12], 0.022%; in [13], 0.035%. Besides, the MIC was 0.31 µg/mL (≈ 0.267 µM) in experiment [2]; 1.56 µg/mL (≈ 1.35 µM) in experiment [5]; 1.56 µg/mL (≈ 1.35 µM) in experiment [6]; 25 µg/mL (≈ 21.6 µM) in [7]; 0.78 µg/mL (≈ 0.673 µM) in [9]; 1.56 µg/mL (≈ 1.35 µM) in experiment [10]. Besides, the MIC in experiment [11] amounted to 1.56 µg/mL (≈ 1.35 µM); in experiment [14] it was 0.63 µg/mL (≈ 0.543 µM); in experiment [16], 0.53 µg/mL (≈ 0.457 µM). The IC50 in experiment [3] turned out to be 16 nM; in experiment [4] it was 131 nM; in experiment [8], 50400 nM.

Regarding `CC(=O)NC1C(OC2C(OP(=O)(O)OC[C@@H](OCCC(C)CCCCC(C)(C)CCC(C)CCC(C)CCCC(C)C)C(=O)O)OC(C(N)=O)C(C)(O)C2OC(N)=O)OC(CO)C(O)C1O` (stereo partly specified), the MIC in experiment [2], in [5], in [7], in [9], in [10] and in experiment [11] was above 100 µg/mL in each case. Further, the MIC in [14] and in experiment [15] was above 100 µg/mL each time. In addition, the results for the IC50 in [3], in experiment [4] and in [18] were 33 nM, 241 nM and “Not Active”, respectively.

For the molecule `C=C(C/C=C(\C)CCC=C(C)C)CCC(C)(C)/C=C/CC/C(C)=C\CO[C@H](COP(=O)(O)O[C@H]1O[C@@H](C(N)=O)[C@@](C)(O)[C@H](OC(N)=O)[C@@H]1O[C@@H]1O[C@@H](CO[C@@H]2O[C@@H](CO)[C@@H](O)[C@H](O)[C@@H]2O)[C@@H](O[C@@H]2O[C@@H](C)[C@@H](O[C@@H]3O[C@@H](C(=O)NC4=C(O)CCC4=O)[C@H](O)[C@H](O)[C@@H]3O)[C@H](O)[C@@H]2NC(C)=O)[C@@H](O)[C@@H]1NC(C)=O)C(=O)O` [MOENOMYCIN], the Survival in experiment [1] is 143%; in experiment [12], 0.48%; in [13] it was 125%. Further, the MIC was 0.025 µg/mL (≈ 0.0158 µM) in experiment [2]; 0.25 µg/mL (≈ 0.158 µM) in experiment [5]; 0.78 µg/mL (≈ 0.493 µM) in experiment [6]; above 200 µg/mL in experiment [7]; 0.078 µg/mL (≈ 0.0493 µM) in experiment [9]; 0.13 µg/mL (≈ 0.0821 µM) in experiment [10]. Also, the results for the MIC in experiment [11], in [14] and in experiment [16] were 0.06 µg/mL (≈ 0.0379 µM), 0.05 µg/mL (≈ 0.0316 µM) and 0.025 µg/mL (≈ 0.0158 µM), respectively. Also, the IC50 in [3] is 15.6 nM; in experiment [4], 31 nM; in [8], above 700000 nM.

On to `CN[C@H](CC(C)C)C(=O)N[C@H]1C(=O)N[C@@H](CC(N)=O)C(=O)N[C@H]2C(=O)N[C@H]3C(=O)N[C@H](C(=O)N[C@H](C(=O)O)c4cc(O)cc(O)c4-c4cc3ccc4O)[C@H](O)c3ccc(c(Cl)c3)Oc3cc2cc(c3O[C@@H]2O[C@H](CO)[C@@H](O)[C@H](O)[C@H]2O[C@H]2C[C@](C)(N)[C@H](O)[C@H](C)O2)Oc2ccc(cc2Cl)[C@H]1O` [VANCOMYCIN], for which the MIC in [2] is 0.78 µg/mL (≈ 0.538 µM); in experiment [5], above 1250 µg/mL; in experiment [6], 0.78 µg/mL (≈ 0.538 µM); in experiment [7], 0.39 µg/mL (≈ 0.269 µM); in [9], 3.12 µg/mL (≈ 2.15 µM); in [10] it was 1250 µg/mL (≈ 863 µM). In experiment [11], this molecule came in with a minimal inhibitory concentration (MIC) of 25 µg/mL (≈ 17.3 µM). Besides, the results for the IC50 in [3], in experiment [4] and in experiment [8] were 3700 nM, 4500 nM and 2600 nM, respectively.

(Values after ChEMBL document CHEMBL1132768, “Differential antibacterial activity of moenomycin analogues on gram-positive bacteria” (Bioorg Med Chem Lett, 2000).)
